# Measured values from US6777422B2, “Substituted tetrahydroisoquinolines as C5a receptor modulators” (Neurogen Corp., priority 2002, dated 2004).
# Molecular target: T1, human C5a receptor (Homo sapiens, UniProt P21730)
# T1 construct: endogenous in cells; host or cells: U937 cells differentiated with 1 mM dibutyryl cAMP
# T1 sequence (P21730 1-350): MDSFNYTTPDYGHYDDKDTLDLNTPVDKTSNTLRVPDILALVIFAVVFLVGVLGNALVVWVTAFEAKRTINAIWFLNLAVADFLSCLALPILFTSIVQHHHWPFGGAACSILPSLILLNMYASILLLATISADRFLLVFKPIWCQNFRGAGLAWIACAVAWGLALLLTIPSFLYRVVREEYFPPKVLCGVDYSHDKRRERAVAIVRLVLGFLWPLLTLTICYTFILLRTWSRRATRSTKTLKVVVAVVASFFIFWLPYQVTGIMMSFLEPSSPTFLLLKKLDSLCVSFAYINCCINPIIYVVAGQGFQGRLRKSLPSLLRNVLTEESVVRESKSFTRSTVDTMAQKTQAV
# Assay: C5a receptor mediated calcium mobilization assay (Example 20)
# Format: cell-based
# Conditions: differentiated U937 cells, read-out: Ca2+ (Ki in the standard assay of C5a receptor mediated calcium mobilization)
# Method: Calcium Mobilization Assays
# U937 cells are grown in differentiation media (1 mM dibutyryl cAMP in RPMI 1640 medium containing 10% fetal bovine serum) for 48 hrs at 37° C. then reseeded onto 96-well plates suitable for use in a FLIPR™ Plate Reader (Molecular Devices Corp., Sunnyvale Calif.). Cells are grown an additional 24 hours (to 70-90% confluence) before the assay. The cells are then washed once with Krebs Ringer solution. FLUO-3 calcium sensitive dye (Molecular Probes, Inc. Eugene, Oreg.) is added to 10 μg/mL and incubated with the cells at room temperature for 1 to 2 hours. The 96 well plates are then washed to remove excess dye. Fluorescence responses, measured by excitation at 480 nm and emission at 530 nm, are monitored upon the addition of human C5a to the cells to a final concentration of 0.01-30.0 nM, using the FLIPR™ device (Molecular Devices).
# C. Assays for the Identification of Receptor Modulatory Agents: Antagonists and Agonists
# The calcium mobilization assay described above may be readily adapted for identifying test compounds that have agonist or antagonist activity at the human C5a receptor.
# For example, in order to identify antagonist compounds, differentiated U937 cells are washed and incubated with Fluo-3 dye as described above. One hour prior to measuring the fluorescence signal, a subset of the cells is incubated with 1 μM of at least one compound to be tested. The fluorescence response upon the subsequent addition of 0.3 nM (final concentration) human recombinant C5a is monitored using the FLIPR™ plate reader. Antagonist compounds elicit at least a 2-fold decrease in the fluorescence response relative to that measured in the presence of human C5a alone. Preferred antagonist compounds elicit at least a 5-fold, preferably at least a 10-fold, and more preferably at least a 20-fold decrease in the fluorescence response relative to that measured in the presence of human C5a alone.
row,Ki [nM],SMILES
1,< 1000,"Cc1ccc(C2c3ccccc3CCN2CC(=O)N(Cc2ccccc2F)C2Cc3ccccc3C2)cc1C (centres unmarked) [Compound 35, N-(indan-2-yl)-2-[1-(3,4-dimethylphenyl)-3,4-dihydroisoquinolin-2(1H)-yl]-N-(2-fluorobenzyl)acetamide]"
2,< 1000,"O=C(CN1CCc2ccccc2C1c1ccc(F)cc1C(F)(F)F)N(Cc1ccccc1F)C1Cc2ccccc2C1 (centres unmarked) [Compound 37, N-(indan-2-yl)-N-(2-fluorobenzyl)-2-[1-[4-fluoro-2-(trifluoromethyl)phenyl]-3,4-dihydroisoquinolin-2(1H)-yl]acetamide]"
3,< 1000,"O=C(CN1CCc2ccccc2C1c1cc(F)ccc1C(F)(F)F)N(Cc1ccccc1F)C1Cc2ccccc2C1 (centres unmarked) [Compound 38, N-(indan-2-yl)-N-(2-fluorobenzyl)-2-[1-[5-fluoro-2-(trifluoromethyl)phenyl]-3,4-dihydroisoquinolin-2(1H)-yl]acetamide]"
4,< 1000,"O=C(CN1CCc2ccccc2[C@H]1c1ccccc1Br)N(Cc1ccccc1F)C1Cc2ccccc2C1 [Compound 40, 2-[(1S)-1-(2-bromophenyl)-3,4-dihydroisoquinolin-2(1H)-yl]-N-(indan-2-yl)-N-(2-fluorobenzyl)acetamide]"
5,< 1000,"O=C(CN1CCc2ccccc2[C@H]1c1ccccc1C(F)(F)F)N(Cc1ccccc1F)C1Cc2ccccc2C1 [Compound 41, N-(indan-2-yl)-N-(2-fluorobenzyl)-2-[(1S)-1-[2-(trifluoromethyl)phenyl]-3,4-dihydroisoquinolin-2(1H)-yl]acetamide]"
6,< 1000,"Cc1ccccc1[C@@H]1c2ccccc2CCN1[C@@H](C)C(=O)N(Cc1ccccc1F)C1Cc2ccccc2C1 [Compound 42, (2S)-N-(indan-2-yl)-N-(2-fluorobenzyl)-2-[(1R)-1-(2-methylphenyl)-3,4-dihydroisoquinolin-2(1H)-yl]propanamide]"
7,< 1000,"O=C(CN1CCc2ccccc2C1c1ccccc1-c1ccccc1)N(Cc1ccccc1F)C1Cc2ccccc2C1 (centres unmarked) [Compound 43, 2-[1-(1,1′-biphenyl-2-yl)-3,4-dihydroisoquinolin-2(1H)-yl]-N-(indan-2-yl)-N-(2-fluorobenzyl)acetamide]"
8,< 1000,"O=C(CN1CCc2ccccc2C1c1cccc2ccccc12)N(Cc1ccccc1F)C1Cc2ccccc2C1 (centres unmarked) [Compound 44, N-(indan-2-yl)-N-(2-fluorobenzyl)-2-[1-(1-naphthyl)-3,4-dihydroisoquinolin-2(1H)-yl]acetamide]"
9,< 1000,O=C(CN1CCc2ccccc2C12CCc1ccccc12)N(Cc1ccccc1F)C1Cc2ccccc2C1 (centres unmarked) [Compound 45]
10,< 1000,"Cc1cccc(C2c3ccccc3CCN2CC(=O)N(Cc2ccccc2F)C2Cc3ccccc3C2)c1Cl (centres unmarked) [Compound 47, 2-[1-(2-chloro-3-methylphenyl)-3,4-dihydroisoquinolin-2(1H)-yl]-N-(indan-2-yl)-N-(2-fluorobenzyl)acetamide]"
11,< 1000,"Cc1c(F)cccc1C1c2ccccc2CCN1CC(=O)N(Cc1ccccc1F)C1Cc2ccccc2C1 (centres unmarked) [Compound 48, N-(indan-2-yl)-N-(2-fluorobenzyl)-2-[1-(3-fluoro-2-methylphenyl)-3,4-dihydroisoquinolin-2(1H)-yl]acetamide]"
12,< 1000,"O=C(CN1CCc2ccccc2C1c1cccc(C(F)(F)F)c1)N(Cc1ccccc1F)C1Cc2ccccc2C1 (centres unmarked) [Compound 50, N-(indan-2-yl)-N-(2-fluorobenzyl)-2-[1-[3-(trifluoromethyl)phenyl]-3,4-dihydroisoquinolin-2(1H)-yl]acetamide]"
13,< 1000,"O=C(CN1CCc2ccccc2C1c1cccc2c1OCC2)N(Cc1ccccc1F)C1Cc2ccccc2C1 (centres unmarked) [Compound 53, 2-[1-(2,3-dihydro-1-benzofuran-7-yl)-3,4-dihydroisoquinolin-2(1H)-yl]-N-(indan-2-yl)-N-(2-fluorobenzyl)acetamide]"
14,< 1000,"C[C@H]1CN(CC(=O)N(Cc2ccccc2F)C2Cc3ccccc3C2)[C@@H](c2ccccc2F)c2ccccc21 [Compound 54, N(indan-2-yl)-N-(2-fluorobenzyl)-2-[(1R,4R)-1-(2-fluorophenyl)-4-methyl-3,4-dihydroisoquinolin-2(1H)-yl]acetamide]"
